The values that follow come from US20240270821A1, “GIP/GLP1/GCG TRI-RECEPTOR AGONISTS AND USES THEREOF” (priority 2023, published 2024).

Holding throughout (type): cell-based
Assay [1] deals with T1, hGIPR (Homo sapiens, UniProt P48546).
T1 sequence (P48546 22-466): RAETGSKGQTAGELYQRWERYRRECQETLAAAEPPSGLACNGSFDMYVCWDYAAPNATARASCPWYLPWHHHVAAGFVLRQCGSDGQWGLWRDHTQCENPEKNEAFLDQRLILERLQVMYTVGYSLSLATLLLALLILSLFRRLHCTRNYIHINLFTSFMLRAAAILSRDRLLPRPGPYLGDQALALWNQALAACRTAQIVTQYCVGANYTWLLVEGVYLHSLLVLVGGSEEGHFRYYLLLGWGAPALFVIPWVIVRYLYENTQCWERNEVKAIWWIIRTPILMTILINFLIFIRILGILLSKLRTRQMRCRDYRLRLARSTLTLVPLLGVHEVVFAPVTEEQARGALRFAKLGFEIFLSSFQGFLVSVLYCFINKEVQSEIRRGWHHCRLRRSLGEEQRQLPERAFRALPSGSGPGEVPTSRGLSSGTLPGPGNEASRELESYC
As to the kind of experiment: Functional cAMP activity in the presence of 1% HSA. As to conditions: read-out: cAMP Rel EC50, hGIPR.

The target of the next assay is human GcgR (Homo sapiens, UniProt P47871). As to the kind of experiment: Functional cAMP activity in the presence of 1% HSA. As to conditions: read-out: cAMP Rel EC50, hGcgR.
In the next assay the target is hGcgR (Homo sapiens, UniProt P47871). Nature of the assay: Functional cAMP activation in the presence of 0.1% casein (no HSA). The settings on record: read-out: Relative cAMP EC50, hGcgR.
Assay [2] addresses T2, hGLP-1R (Homo sapiens, UniProt P43220). Described as above. The settings on record: read-out: Relative cAMP EC50, hGLP-1R.
The target in assay [3] is T2, hGLP-1R. As to the kind of experiment: Functional cAMP activity in the presence of 1% HSA. As to conditions: read-out: cAMP Rel EC50, hGLP-1R.
Assay [4] deals with T1, hGIPR. As to the kind of experiment: Functional cAMP activation in the presence of 0.1% casein (no HSA). The settings on record: read-out: Relative cAMP EC50, hGIPR.
Setting [5] is: 0.1% casein, no HSA, geometric mean.
Setting [6] is: in the presence of 0.1% casein (no HSA), geometric mean.

Read-outs that look alike come from different tables or passages of the source. Starred links: 1 amine or outer side, 2 acyl side, 3 side chain; linkers in the order of their positions; H or OH if unused. Non-standard residues stand in square brackets, D forms with d. Residues, ends and D or L forms follow the SMILES beside them. Groups on a side chain read outwards from the residue. *: point of attachment. C18 diacid = O=C(O)CCCCCCCCCCCCCCCCC(=O)*; αMePhe(2-F) = C[C@](N)(Cc1ccccc1F)C(=O)O; γGlu = O=C(O)[C@H](CCC(=O)[*:2])N[*:1]; αMe4Pal = C[C@](N)(Cc1ccncc1)C(=O)O; αMeY = C[C@](N)(Cc1ccc(O)cc1)C(=O)O; αMeF = C[C@](N)(Cc1ccccc1)C(=O)O; 4Pal = N[C@@H](Cc1ccncc1)C(=O)O; αMeL = CC(C)C[C@](C)(N)C(=O)O; αMeS = C[C@](N)(CO)C(=O)O; Orn = NCCC[C@H](N)C(=O)O; AEEA = NCCOCCOCC(=O)O; Aib = CC(C)(N)C(=O)O
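For Relative cAMP EC50, hGIPR in this document: intracellular cAMP rise after 30 min at 37 °C read by HTRF against a standard curve, scaled between buffer alone (0%) and top control ligand concentration (100%), four-parameter fit.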
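For Relative cAMP EC50, hGLP-1R in this document: intracellular cAMP rise after 30 min at 37 °C read by HTRF, normalized between buffer only (0%) and maximal control ligand (100%), four-parameter variable-slope fit.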
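For Relative cAMP EC50, hGcgR in this document: intracellular cAMP rise after 30 min at 37 °C, read by HTRF against a cAMP standard curve, scaled from buffer only (0%) to maximal control ligand response (100%).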

T2 sequence (P43220 24-463): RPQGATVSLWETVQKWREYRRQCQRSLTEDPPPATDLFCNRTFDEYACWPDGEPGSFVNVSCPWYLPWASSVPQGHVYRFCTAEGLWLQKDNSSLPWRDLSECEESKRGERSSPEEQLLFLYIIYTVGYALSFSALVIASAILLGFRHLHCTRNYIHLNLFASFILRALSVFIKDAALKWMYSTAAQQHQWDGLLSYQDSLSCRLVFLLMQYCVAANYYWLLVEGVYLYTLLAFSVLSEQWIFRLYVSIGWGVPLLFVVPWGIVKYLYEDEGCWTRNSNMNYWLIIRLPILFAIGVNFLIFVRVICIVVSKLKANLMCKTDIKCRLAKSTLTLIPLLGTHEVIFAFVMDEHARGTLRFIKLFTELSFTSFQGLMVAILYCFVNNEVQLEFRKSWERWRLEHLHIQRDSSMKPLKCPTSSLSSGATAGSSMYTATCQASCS
human GcgR, sequence (P47871 26-477): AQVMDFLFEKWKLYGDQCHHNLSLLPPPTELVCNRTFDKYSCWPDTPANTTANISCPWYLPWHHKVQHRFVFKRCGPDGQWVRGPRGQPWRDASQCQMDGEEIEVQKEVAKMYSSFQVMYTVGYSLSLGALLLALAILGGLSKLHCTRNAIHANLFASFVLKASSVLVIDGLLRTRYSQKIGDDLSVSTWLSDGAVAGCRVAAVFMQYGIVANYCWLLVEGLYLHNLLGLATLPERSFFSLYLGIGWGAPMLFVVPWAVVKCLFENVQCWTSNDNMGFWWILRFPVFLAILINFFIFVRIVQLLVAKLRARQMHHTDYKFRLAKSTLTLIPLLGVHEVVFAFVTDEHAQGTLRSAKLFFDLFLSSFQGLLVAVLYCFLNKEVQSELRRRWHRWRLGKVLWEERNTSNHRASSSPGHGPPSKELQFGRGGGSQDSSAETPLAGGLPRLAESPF
hGcgR, sequence (P47871 26-477): as above

The term EC50 denotes the concentration giving half of the maximal effect. Turning to “H-Y[Aib]QGT[αMePhe(2-F)]TSD[4Pal][αMeS]I[αMeL]LD[Orn]K([AEEA-γGlu-C18 diacid])AQ[αMe4Pal]EFI[dE][αMeY]LIEGGPSSGAPPPSGGGEEE-NH2 [Example 1215]”, the concentration for a half-maximal effect (EC50) at hGIPR [1] stood at 0.937 nM; at human GcgR, 272 nM; at hGcgR (setting [5]), 2.09 nM; on hGLP-1R [2] (setting [5]) it was 0.668 nM; at hGLP-1R [3], 58.5 nM; at hGIPR [4] (setting [5]) it was 0.0106 nM.

“H-Y[Aib]QGTFTSD[4Pal]S[Orn][αMeL]LDKK([γGlu-γGlu-C18 diacid])AQ[αMe4Pal]AFIE[αMe4Pal]LIEGGPSSGAPPPSGS-NH2 [Example 952]”: the EC50 at hGIPR [1] amounted to 16.6 nM; on human GcgR it was 266 nM; at hGcgR (setting [6]), 2.4 nM; at hGLP-1R [2] (setting [6]) it was 4.85 nM; at hGLP-1R [3], 439 nM; at hGIPR [4] (setting [6]), 0.166 nM.

On to `CC[C@H](C)[C@H](NC(=O)[C@H](Cc1ccccc1)NC(=O)[C@H](C)NC(=O)C(C)(C)NC(=O)[C@H](C)NC(=O)[C@H](C)NC(=O)[C@H](CCCCNC(=O)COCCOCCNC(=O)CC[C@H](NC(=O)CCCCCCCCCCCCCCCCC(=O)O)C(=O)O)NC(=O)[C@H](CCCN)NC(=O)[C@H](CC(=O)O)NC(=O)[C@H](CC(C)C)NC(=O)[C@](C)(CC(C)C)NC(=O)[C@@H](NC(=O)[C@H](CO)NC(=O)[C@H](Cc1ccncc1)NC(=O)[C@H](CC(=O)O)NC(=O)[C@H](CO)NC(=O)[C@@H](NC(=O)[C@](C)(Cc1ccccc1F)NC(=O)[C@@H](NC(=O)CNC(=O)[C@H](CCC(N)=O)NC(=O)C(C)(C)NC(=O)[C@@H](N)Cc1ccc(O)cc1)[C@@H](C)O)[C@@H](C)O)[C@@H](C)CC)C(=O)N[C@H](CCC(=O)O)C(=O)N[C@@](C)(Cc1ccc(O)cc1)C(=O)N[C@@H](CC(C)C)C(=O)N[C@@H](CC(C)C)C(=O)N[C@@H](CCC(=O)O)C(=O)NCC(=O)NCC(=O)N1CCC[C@H]1C(=O)N[C@@H](CO)C(=O)N[C@@H](CO)C(=O)NCC(=O)N[C@@H](CCC(=O)O)C(=O)N1CCC[C@H]1C(=O)N1CCC[C@H]1C(=O)N1CCC[C@H]1C(=O)N[C@@H](CO)C(N)=O` [Example 1236] (H-Y[Aib]QGT[αMePhe(2-F)]TSD[4Pal]SI[αMeL]LD[Orn]K([AEEA-γGlu-C18 diacid])AA[Aib]AFI[dE][αMeY]LLEGGPSSGEPPPS-NH2), for which the EC50 at hGIPR [1] (HEK-293 cells expressing hGIPR, 1% HSA, geometric mean of relative EC50) is 11.9 nM; on human GcgR (HEK-293 cells expressing hGcgR, 1% HSA, geometric mean of relative EC50) it was 502 nM; on hGcgR (setting [5]) it was 0.947 nM; on hGLP-1R [2] (setting [5]), 0.304 nM; on hGLP-1R [3] (HEK-293 cells expressing hGLP-1R, 1% HSA, geometric mean of relative EC50), 95.8 nM; at hGIPR [4] (setting [5]), 0.052 nM.

With “H-Y[Aib]QGTFTSD[4Pal]S[Orn][αMeL]LDKK([γGlu-AEEA-γGlu-C18 diacid])AQ[αMe4Pal]AFIEYLIE[Aib]GPSSGAPPPSGS-NH2 [Example 868]”, the EC50 came out at 17.7 nM at hGIPR [1]; 622 nM at human GcgR; 7.4 nM on hGcgR (setting [6]); 5.82 nM on hGLP-1R [2] (setting [6]); 822 nM at hGLP-1R [3]; 0.208 nM on hGIPR [4] (setting [6]).

In the case of “H-Y[Aib]QGT[αMeF]TSD[4Pal][αMeS]I[αMeL]LD[Orn]K([γGlu-γGlu-C18 diacid])AQ[αMe4Pal]EFI[dE][αMeY]LIEGGPSSGEPPPSGSE-NH2 [Example 1173]”, the EC50 turned out to be 0.764 nM at hGIPR [1]; 254 nM at human GcgR; 2.31 nM at hGcgR (setting [6]); 0.604 nM at hGLP-1R [2] (setting [6]); 59.1 nM at hGLP-1R [3]; 0.00943 nM at hGIPR [4] (setting [6]).

As for `CC[C@H](C)[C@H](NC(=O)[C@H](CC(C)C)NC(=O)[C@](C)(Cc1ccc(O)cc1)NC(=O)[C@@H](CCC(=O)O)NC(=O)[C@@H](NC(=O)[C@H](Cc1ccccc1)NC(=O)[C@H](CCCN)NC(=O)C(C)(C)NC(=O)[C@H](CCC(N)=O)NC(=O)[C@H](C)NC(=O)[C@H](CCCCNC(=O)CC[C@H](NC(=O)CC[C@H](NC(=O)CCCCCCCCCCCCCCCCC(=O)O)C(=O)O)C(=O)O)NC(=O)[C@H](CCCN)NC(=O)[C@H](CC(=O)O)NC(=O)[C@H](CC(C)C)NC(=O)[C@](C)(CC(C)C)NC(=O)[C@H](CCC(=O)O)NC(=O)[C@](C)(CO)NC(=O)[C@H](Cc1ccncc1)NC(=O)[C@H](CC(=O)O)NC(=O)[C@H](CO)NC(=O)[C@@H](NC(=O)[C@](C)(Cc1ccccc1F)NC(=O)[C@@H](NC(=O)CNC(=O)[C@H](CCC(N)=O)NC(=O)C(C)(C)NC(=O)[C@@H](N)Cc1ccc(O)cc1)[C@@H](C)O)[C@@H](C)O)[C@@H](C)CC)C(=O)N[C@@H](CCC(=O)O)C(=O)NCC(=O)NCC(=O)N1CCC[C@H]1C(=O)N[C@@H](CO)C(=O)N[C@@H](CO)C(=O)NCC(=O)N[C@@H](CCC(=O)O)C(=O)N1CCC[C@H]1C(=O)N1CCC[C@H]1C(=O)N1CCC[C@H]1C(=O)N[C@@H](CCC(=O)O)C(N)=O` [Example 447] (H-Y[Aib]QGT[αMePhe(2-F)]TSD[4Pal][αMeS]E[αMeL]LD[Orn]K([γGlu-γGlu-C18 diacid])AQ[Aib][Orn]FI[dE][αMeY]LIEGGPSSGEPPPE-NH2), the EC50 was 1.81 nM on hGIPR [1]; 1090 nM at human GcgR; 9.71 nM at hGcgR; 0.214 nM on hGLP-1R [2]; 11.3 nM on hGLP-1R [3]; 0.0177 nM at hGIPR [4].

With `CC[C@H](C)[C@H](NC(=O)[C@H](Cc1ccccc1)NC(=O)[C@H](C)NC(=O)C(C)(C)NC(=O)[C@H](CCC(N)=O)NC(=O)[C@H](C)NC(=O)[C@H](CCCCNC(=O)COCCOCCNC(=O)CC[C@H](NC(=O)CCCCCCCCCCCCCCCCCCC(=O)O)C(=O)O)NC(=O)[C@H](CCCCN)NC(=O)[C@H](CC(=O)O)NC(=O)[C@H](CC(C)C)NC(=O)[C@](C)(CC(C)C)NC(=O)[C@H](CCCN)NC(=O)[C@H](CO)NC(=O)[C@H](Cc1ccccc1)NC(=O)[C@H](CC(=O)O)NC(=O)[C@H](CO)NC(=O)[C@@H](NC(=O)[C@H](Cc1ccccc1)NC(=O)[C@@H](NC(=O)CNC(=O)[C@H](CCC(N)=O)NC(=O)C(C)(C)NC(=O)[C@@H](N)Cc1ccc(O)cc1)[C@@H](C)O)[C@@H](C)O)C(=O)N[C@@H](CCC(=O)O)C(=O)N[C@@H](Cc1c[nH]c2ccccc12)C(=O)N[C@@H](CC(C)C)C(=O)N[C@@H](CC(C)C)C(=O)N[C@@H](CCC(=O)O)C(=O)NCC(=O)NCC(=O)N1CCC[C@H]1C(=O)N[C@@H](CO)C(=O)N[C@@H](CO)C(=O)NCC(=O)N[C@@H](C)C(=O)N1CCC[C@H]1C(=O)N1CCC[C@H]1C(=O)N1C[C@H](O)C[C@H]1C(=O)N[C@@H](CO)C(=O)NCC(=O)N[C@@H](CCC(=O)O)C(N)=O` [Example 105], the EC50 came out at 72.5 nM on hGIPR [1]; 2790 nM at human GcgR; 12.5 nM at hGcgR (setting [6]); 2.86 nM on hGLP-1R [2] (setting [6]); 768 nM at hGLP-1R [3]; 0.269 nM on hGIPR [4] (setting [6]).

Consider `CC[C@H](C)[C@H](NC(=O)[C@H](CC(C)C)NC(=O)[C@](C)(Cc1ccc(O)cc1)NC(=O)[C@@H](CCC(=O)O)NC(=O)[C@@H](NC(=O)[C@H](Cc1ccccc1)NC(=O)[C@H](CCC(=O)O)NC(=O)C(C)(C)NC(=O)[C@H](C)NC(=O)[C@H](C)NC(=O)[C@H](CCCCNC(=O)COCCOCCNC(=O)CC[C@H](NC(=O)CCCCCCCCCCCCCCCCC(=O)O)C(=O)O)NC(=O)[C@H](CCCN)NC(=O)[C@H](CC(=O)O)NC(=O)[C@H](CC(C)C)NC(=O)[C@](C)(CC(C)C)NC(=O)[C@@H](NC(=O)[C@](C)(CO)NC(=O)[C@H](Cc1ccncc1)NC(=O)[C@H](CC(=O)O)NC(=O)[C@H](CO)NC(=O)[C@@H](NC(=O)[C@](C)(Cc1ccccc1F)NC(=O)[C@@H](NC(=O)CNC(=O)[C@H](CCC(N)=O)NC(=O)C(C)(C)NC(=O)[C@@H](N)Cc1ccc(O)cc1)[C@@H](C)O)[C@@H](C)O)[C@@H](C)CC)[C@@H](C)CC)C(=O)N[C@@H](CCC(=O)O)C(=O)NCC(=O)NCC(=O)N1CCC[C@H]1C(=O)N[C@@H](CO)C(=O)N[C@@H](CO)C(=O)NCC(=O)N[C@@H](C)C(=O)N1CCC[C@H]1C(=O)N1CCC[C@H]1C(=O)N1CCC[C@H]1C(=O)N[C@@H](CO)C(=O)NCC(=O)N[C@H](C(=O)NCC(=O)N[C@H](CCC(=O)O)C(N)=O)[C@@H](C)O` [Example 723], for which the EC50 is 1.02 nM on hGIPR [1]; 179 nM on human GcgR; 1.82 nM at hGcgR; 0.255 nM at hGLP-1R [2]; 26.5 nM on hGLP-1R [3]; 0.0118 nM on hGIPR [4].
